{"source": "patent US12221494B2", "about": "“Short synthetic peptides and their uses for treating retinal degenerative diseases and/or tissue injuries” (MacKay Memorial Hospital, priority 2019, dated 2025)", "tested_on": "ARPE-19 cells", "assay": "4-HNE induced apoptosis of ARPE-19 cells (TUNEL staining)", "assay_type": "cell-based, human", "settings": "20 μM peptide pretreatment, 25 μM 4-HNE 24 h", "experimental": "FIG. 6. The protective effect of the 6-mer dS on ARPE-19 cells against 4-HNE induced apoptosis. Cells were deprived of serum for 24 h and then pretreated with 20 μM 6-mer dS or solvent prior to exposed with 25 μM 4-HNE for additional 24 h. Apoptosis was determined by TUNEL staining (green dots) and counter-stained with Hoechst 33258 (blue dots). (A) Representative graphs from three independent experiments are shown. (B) The percentage of cell death was quantified by dividing the number of TUNEL-positive cells to a population of 2000 counted cells per condition. TUNEL, terminal deoxynucleotidyl transferase-mediated dUTP nick end-labeling. ^aP<0.00003 versus solvent-treated cells. ^bP<0.0006 versus solvent/4-HNE-treated cells.\nReference is made to FIG. 6, which depicts the protective effect of 6-mer dS or 6-mer dE on 4-hydroxy-2-nonenal (4-HNE) induced apoptosis of ARPE-19 cells. 4-hydroxy-2-nonenal (4-HNE) is a product of lipid oxidation, and is also considered as one of the most formidable reactive aldehydes capable of forming adduct with various cellular targets, particularly proteins involve in redox signaling.", "note": "Square brackets hold non-standard residues; d marks the D form. Ends that are not written are not given here."}
{"substance": "NH2-Ser-Leu-Gly-Ala-Glu-Gln-COOH ([dS]LGAEQ; not fully specified (N-terminus, C-terminus); printed as NH2-Ser-Leu-Gly-Ala-Glu-Gln-COOH) [Peptide 6-mer]", "values": [{"measurement": "4-HNE induced apoptosis (TUNEL), in words", "result": "6-mer dS being more effective than the 6-mer"}]}
